From publication PMC9849758, “Chemically diverse activity-based probes with unexpected inhibitory mechanisms targeting trypsin-like serine proteases” (Frontiers in Chemistry, 2023)
“Also recorded” adds a separate entry of the source.

How the values were obtained:
Type in all cases: biochemical
[1] = target: T1, Trypsin-3 (Homo sapiens, UniProt P35030); assay: Jump dilution, determination of inhibition type; design: purchased R&D; conditions: inhibitor at 10 times IC50, 15 min, diluted 10-fold or 100-fold; Rev./Irrev.
T1 sequence (P35030 1-304): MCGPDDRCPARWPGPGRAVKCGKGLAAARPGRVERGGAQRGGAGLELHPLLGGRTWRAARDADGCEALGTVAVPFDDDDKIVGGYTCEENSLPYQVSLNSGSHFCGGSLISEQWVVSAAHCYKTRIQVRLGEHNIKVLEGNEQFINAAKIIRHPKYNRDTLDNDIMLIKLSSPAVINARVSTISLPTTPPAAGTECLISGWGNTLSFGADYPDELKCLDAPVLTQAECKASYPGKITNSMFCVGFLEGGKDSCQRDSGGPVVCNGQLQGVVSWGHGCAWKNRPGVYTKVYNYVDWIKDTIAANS
Protocol: (§1) The dissociation of the enzyme-inhibitor complex was monitored by substrate hydrolysis over time ([Joossens et al., 2006]).
(§2) Because ABPs are designed to be irreversible serine protease inhibitors, the IC50 is exclusively used as a first discriminatory evaluation. When an inhibitor is irreversible, its IC50 value not only depends on the substrate and enzyme concentration but also on the time of incubation with the enzyme before the reaction is started by adding the substrate. […] The progress curve in the presence of an irreversible inhibitor will show final velocities equal to zero (Figure 6C). In contrast, for a reversible inhibitor, progress curves have a non-zero final steady-state velocity (Figure 6A) ([McWhirter, 2021]). To corroborate the inhibitory mechanism of the compounds, jump-dilution assays were performed. These use an inhibitor concentration of 10-fold the IC50 for the incubation, and a posteriori, the reaction mixture is diluted 10-fold or 100-fold before adding the substrate. In the case of an irreversible inhibitor, enzymatic activity is not regained (Figure 6D), whereas, in the case of a reversible compound, a slow release of the inhibitor and a gradual increase of the enzymatic activity rate is observed (Figure 6B) ([Copeland, 2013]; [McWhirter, 2021]). The jump-dilution assays confirmed the behavior described by the progress curves.
(§3) 2.2.2 Jump dilution results
(§4) Supplementary Table 2. Jump dilution of selected alkyne and desthiobiotin probes against a panel of trypsin-like serine proteases. […]
(§5) # R R DtBa 3 tryptase Thrombin uPA CatG
(§6) 32b H Alk Irrev. Irrev. Rev. Irrev. Rev.
(§7) 45b DtB Irrev. Irrev. Rev. N.D. N.D.
(§8) 33b Alk Irrev. Irrev. Rev. Irrev. Rev.
(§9) 46b Cl DtB Irrev. Irrev. Rev. N.D. N.D.
(§10) 34b H Alk Rev. Rev. Rev. Irrev. Rev.
(§11) 50b DtB Rev. Rev. Rev. Irrev. Rev.
(§12) 35b Alk Rev. Rev. Rev. Irrev. Rev.
(§13) 52b NHCOMe DtB Rev. Rev. Rev. Irrev. Rev.
(§14) 36b Alk Rev. Rev. Rev. Irrev. Rev.
(§15) 54b Cl DtB Rev. Rev. Rev. Irrev. Rev.
(§16) 37b Alk Irrev. Irrev. N.D. Irrev. Irrev.
(§17) 55b H DtB Irrev. Irrev. N.D. Irrev. Irrev.
(§18) 38b Alk Irrev. Irrev. N.D. Irrev. Irrev.
(§19) 56b NHCOMe DtB Irrev. Irrev. N.D. Irrev. Irrev.
(§20) 39b Alk Irrev. Irrev. N.D. Irrev. Rev.
(§21) 57b Cl DtB Irrev. Irrev. N.D. Irrev. Rev.
(§22) 41b H Alk Irrev. Irrev. Irrev. N.D. N.D.
(§23) 31b Pro-Lys H Alk Irrev. Irrev. Irrev. Irrev. N.D. a Alk: ABP precursor bearing an alkyne; DtB: desthiobiotin probe b Panel of serine proteases abbreviations: urokinase plasminogen activator (uPA), cathepsin G (catG) N.D.: IC50 is greater than 10µM, and jump dilution was not performed
(§24) 2.2.3 Progress curves and Jump dilution experiments
(§25) Kinetic assays were performed in the following manner. The inhibitor was mixed with the substrate, and the buffer solution with the enzyme was added at the time zero. The progress curves show the release of para-nitroaniline (pNA) or 7-amino-4-methyl coumarin (AMC) as a function of time.
(§26) To monitor the dissociation of the inhibitor-enzyme, aliquots of the enzyme were incubated at 37 °C without and with the inhibitor at a concentration 10 times higher than its IC 50. The enzyme […]
(§27) min, the aliquots were diluted 10-fold or 100-fold into the substrate concentration and assay buffer used for the IC50 determination. The dissociation of the enzyme-inhibitor complex was monitored by substrate hydrolysis over time. Blue lines represent the control where no inhibitor was present. Pink lines represent the assay with inhibitor.

[2] = target: T1, Trypsin-3; assay: Kinetic progress curves (kapp, K1, KI*, mechanism); design: purchased R&D; conditions: for Trypsin-3 kapp: apparent second-order rate constant from progress curves; for Trypsin-3 kapp / Ki: mean ± SD; for Trypsin-3 mechanism of inhibition: defined by the progress curves: slow-binding (Rev.) or irreversible (Irrev.)
Protocol: Because the compounds described in this paper were previously described as irreversible inhibitors, the IC50 value is inversely correlated with the second-order rate constant of inactivation. For a simple pseudo-first-order inactivation process, the activity after incubation with inhibitor (vi) varies with the inhibitor concentration (i), as described in the following equation: vi=v0·e^−kit where v0 is the activity in the absence of an inhibitor, k is the second-order rate constant of inactivation, and t is the time. The inactivation rate constant was determined from the time course of inhibition.
Kinetic assays were performed in the following manner. The inhibitor was mixed with the substrate, and the buffer solution with the enzyme was added at the time zero. The progress curves show the release of pNA or AMC as a function of time. Initially, no inhibitor is bound to the enzyme, and the tangent to the progress curve (dA/dt) is proportional to the free enzyme concentration. The free enzyme concentration decreases over time due to inhibitor binding kinetics, as described above. Progress curves were recorded in pseudo-first-order conditions ([I]0>>[E]0) and with less than 10% conversion of the substrate during the entire time course. In these conditions, dA/dt decreases exponentially with time. The progress curves were fitted with the integrated rate equation with GraFit7 to yield a value for kobs, a pseudo-first-order rate constant. At=Ao+vs∙t+vi−vs∙1−e^−kobs∙t/kobs where At is the absorbance at time t, A0 is the absorbance at time zero, vi is the initial rate and vs is the velocity at the steady-state.
The apparent second-order rate constant (kapp) was calculated from the slope of the linear part of the plot of kobs vs. the inhibitor concentration ([I]0). In the case of competition between the inhibitor and the substrate, kapp is smaller than the “real” second-order rate constant k discussed above because a certain fraction of the enzyme is present as an enzyme-substrate complex. kapp depends on the substrate concentration used in the experiment, as described by [Lambeir et al. (1996)].
The apparent equilibrium constants were obtained from the following equations, vi/vo=1/1+I/K1; vS/vo=1/1+I/KI* where vi is the initial rate, vs is the steady-state velocity and vo is the uninhibited initial rate.

[3] = target: T2, uPA (Homo sapiens, UniProt P00749); assay: Jump dilution, determination of inhibition type; conditions: inhibitor at 10 times IC50, 15 min, diluted 10-fold or 100-fold; Rev./Irrev.
T2 construct: purchased HYPHEN BioMed
Protocol: as §1, §2, §3, §4, §5, §6, §7, §8, §9, §10, §11, §12, §13, §14, §15, §16, §17, §18, §19, §20, §21, §22, §23, §24, §25, §26, §27

[4] = target: β-tryptase (Homo sapiens, UniProt P20231); assay: Jump dilution, determination of inhibition type; design: purchased EnzoLife Sciences; conditions: inhibitor at 10 times IC50, 15 min, diluted 10-fold or 100-fold; Rev./Irrev.
Protocol: as §1, §2, §3, §4, §5, §6, §7, §8, §9, §10, §11, §12, §13, §14, §15, §16, §17, §18, §19, §20, §21, §22, §23, §24, §25, §26, §27

[5] = Trypsin-3 K1, apparent equilibrium constant of the first step of slow-binding
[6] = Trypsin-3 KI*, apparent equilibrium constant of the overall process

Sequence of β-tryptase (P20231 31-275): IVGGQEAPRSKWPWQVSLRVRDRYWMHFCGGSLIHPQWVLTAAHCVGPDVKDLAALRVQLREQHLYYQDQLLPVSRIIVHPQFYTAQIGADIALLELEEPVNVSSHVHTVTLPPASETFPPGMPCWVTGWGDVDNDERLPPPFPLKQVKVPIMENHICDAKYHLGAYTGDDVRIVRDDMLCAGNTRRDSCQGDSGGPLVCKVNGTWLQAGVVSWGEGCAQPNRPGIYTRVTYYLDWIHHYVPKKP

SMILES	Trypsin-3 jump dilution result [1]	Trypsin-3 kapp [2]	Trypsin-3 mechanism of inhibition [2]	uPA jump dilution result [3]	β-tryptase jump dilution result [4]	Ki [2, 5]	Ki [2, 6]
C#CCCCOC(=O)NC(c1ccc(NC(=N)N)cc1)P(=O)(Oc1ccccc1)Oc1ccccc1.O=C(O)C(F)(F)F (centres unmarked) [37b, Pent-4-yn-1-yl ((diphenoxyphosphoryl)(4-guanidinophenyl)methyl)carbamate trifluoroacetate salt]	Irrev.	293 ± 34 M⁻¹ s⁻¹	Irrev.	Irrev.	Irrev.		
CC(=O)Nc1ccc(OP(=O)(Oc2ccc(NC(C)=O)cc2)C(Cc2ccc(NC(=N)N)cc2)NC(=O)OCCCc2cn(CCOCCOCCOCCNC(=O)CCCCC[C@H]3NC(=O)N[C@H]3C)nn2)cc1 (some centres unmarked) [52b]	Rev.	86 × 10^3 ± 8250 M^−1 s^−1	Rev.	Irrev.	Rev. and Reversible	17 ± 0.5 nM	1 nM
C[C@@H]1NC(=O)N[C@@H]1CCCCCC(=O)NCCOCCOCCOCCn1cc(CCCOC(=O)NC(CCCNC(=N)N)P(=O)(Oc2ccc(Cl)cc2)Oc2ccc(Cl)cc2)nn1 (some centres unmarked) [46b]	Irrev.	92 × 10^2 ± 349 M^−1 s^−1	Irrev.		Irrev.		
C#CCCCOC(=O)NC(CCCNC(=N)N)P(=O)(Oc1ccc(Cl)cc1)Oc1ccc(Cl)cc1 (centres unmarked) [33b]	Irrev.	35 × 10^2 ± 40 M^−1 s^−1	irreversibility; also recorded: Irrev	Irrev.	Irrev.		
C[C@@H]1NC(=O)N[C@@H]1CCCCCC(=O)NCCOCCOCCOCCn1cc(CCCOC(=O)NC(c2ccc(NC(=N)N)cc2)P(=O)(Oc2ccc(Cl)cc2)Oc2ccc(Cl)cc2)nn1 (some centres unmarked) [57b]	Irrev.	13 × 10^2 ± 340 M^−1 s^−1	Irrev.	Irrev.	Irrev.		
C#CCCCOC(=O)NC(Cc1ccc(NC(=N)N)cc1)P(=O)(Oc1ccc(NC(C)=O)cc1)Oc1ccc(NC(C)=O)cc1 (centres unmarked) [35b]	Rev.		* ^d Rev.	Irrev.	Rev.	1 ± 0.1 nM	0.1 nM
C#CCCCOC(=O)NC(c1ccc(NC(=N)N)cc1)P(=O)(Oc1ccc(Cl)cc1)Oc1ccc(Cl)cc1 (centres unmarked) [39b, Pent-4-yn-1-yl ((bis(4-chlorophenoxy)phosphoryl)(4-guanidinophenyl)methyl)carbamate]	Irrev.		Irrev.	Irrev.	Irrev.		
C#CCCCOC(=O)NC(C1CCN(C(=N)N)CC1)P(=O)(Oc1ccccc1)Oc1ccccc1 (centres unmarked) [41b]	Irrev.	17 × 10^2 ± 142 M^−1 s^−1	irreversible inhibition; also recorded: Irrev		Irrev.		
C[C@@H]1NC(=O)N[C@@H]1CCCCCC(=O)NCCOCCOCCOCCn1cc(CCCOC(=O)NC(CCCNC(=N)N)P(=O)(Oc2ccccc2)Oc2ccccc2)nn1 (some centres unmarked) [45b]	Irrev.	17 × 10^2 ± 122 M^−1 s^−1	Irrev.		Irrev.		
C[C@@H]1NC(=O)N[C@@H]1CCCCCC(=O)NCCOCCOCCOCCn1cc(CCCOC(=O)NC(Cc2ccc(NC(=N)N)cc2)P(=O)(Oc2ccc(Cl)cc2)Oc2ccc(Cl)cc2)nn1 (some centres unmarked) [54b]	Rev.		* ^d Rev.	Irrev.	Rev.	6 ± 0.5 nM	0.8 nM
C#CCCCOC(=O)NC(c1ccc(NC(=N)N)cc1)P(=O)(Oc1ccc(NC(C)=O)cc1)Oc1ccc(NC(C)=O)cc1 (centres unmarked) [38b, Pent-4-yn-1-yl ((bis(4-acetamidophenoxy)phosphoryl)(4-guanidinophenyl)methyl) carbamate]	Irrev.	358 ± 6 M⁻¹ s⁻¹	Irrev.	Irrev.	Irrev.		
C[C@@H]1NC(=O)N[C@@H]1CCCCCC(=O)NCCOCCOCCOCCn1cc(CCCOC(=O)NC(c2ccc(NC(=N)N)cc2)P(=O)(Oc2ccccc2)Oc2ccccc2)nn1 (some centres unmarked) [55b]	Irrev.	231 ± 18 M⁻¹ s⁻¹	Irrev.	Irrev.	Irrev.		
CC(=O)Nc1ccc(OP(=O)(Oc2ccc(NC(C)=O)cc2)C(NC(=O)OCCCc2cn(CCOCCOCCOCCNC(=O)CCCCC[C@H]3NC(=O)N[C@H]3C)nn2)c2ccc(NC(=N)N)cc2)cc1 (some centres unmarked) [56b]	Irrev.	334 ± 85 M⁻¹ s⁻¹	Irrev.	Irrev.	Irrev; also recorded: Irreversible		
